Source: patent US11945799B2, “4-ethynylpyridine derivatives useful as GCN2 inhibitors” (IP2IPO INNOVATIONS LIMITED, priority 2020, dated 2024)
Where two headings read alike, the source gives them in different places.

Legend:
[1] = target: T1, full-length human GCN2 enzyme (Homo sapiens, UniProt Q9P2K8); experiment: GCN2 enzyme inhibition, LanthaScreen TR-FRET Kinase Activity assay (10 μM and 300 μM ATP); assay type: biochemical; details: mean of replicate assays
T1 construct: purchased Carna Bioscience
Protocol: Biological and Pharmacokinetic Testing (a) GCN2 Enzyme Inhibition (10 μM and 300 μM Assays) Assay Protocol Overview:
The inhibitory activity of the Example compounds towards GCN2 enzyme was measured according to the description below, using a LanthaScreen TR-FRET (Time Resolved Fluorescence Resonance Energy Transfer) Kinase Activity assay distributed by ThermoFisher Scientific.
The full-length human GCN2 enzyme (UniProt accession number Q9P2K8) was used for all experiments (Carna Bioscience). The TR-FRET pair was composed of GFP-eIF2α and LanthaScreen Terbium-labeled anti-peIF2α (pSer52) Antibody.
Each example compound was dissolved in DMSO (0.15 mM) and dispensed in a 384-well plate by a D300 dispenser (Tecan) to a final concentration range 3000-0.13 nM using the logarithmic dilution mode in 2 replicates. Full inhibition (3000 nM commercial reference inhibitor) and DMSO vehicle control wells were also included on the same plate. All volumes were normalized to the final DMSO concentration of 2% of the reaction volume. Next, 5 μL of H2O was added to each well of the plate.
The enzyme mixture was prepared to obtain the following concentrations: • GCN2—30 nM • unloaded tRNA—0.3 nM • HEPES (pH=7.0)—100 mM • MgCl2—20 mM; MnCl2—10 mM
The mixture was applied by adding 5 μL to each well of the plate. The enzyme and the tested compound were then incubated at room temperature for 20 min while shaking at 450 rpm.
The substrate mixture was prepared to obtain the following concentrations: • GFP-eIF2α—240 nM • ATP—900 μM or 30 μM • HEPES (pH=7.0)—50 mM • MgCl2—10 mM • MnCl2—5 mM.
The mixture was applied by adding 5 μL to each well of the plate. Thus, the final concentrations of the 15 μL reaction mixture were as follows: • GCN2—10 nM • unloaded tRNA—0.1 nM • GFP-eIF2α—80 nM • ATP—300 μM or 10 μM • HEPES (1 M, pH=7.0)—50 mM • MgCl2—10 mM • MnCl2—5 mM.
The reaction was allowed to proceed at room temperature for 30 min while shaking at 450 rpm.
The antibody mixture was prepared to obtain the following concentrations: • Na2EDTA·2H2O—40 mM, in TR-FRET Dilution Buffer (Life technologies) • Tb—anti-peIF2a antibodies—4 nM.
The mixture was applied by adding 15 μL to each well. The plate was then incubated at room temperature for 60 min while shaking at 450 rpm and then read using Tecan Spark reader using specific TR-FRET filters.
The analysis of the GFP/Tb fluorescence results was conducted with GraphPad Prism to determine IC50 for each of the example compounds using 4-parameter model: log(inhibitor) vs. response-variable slope. IC50 and K, values were calculated in the usual way. The assay was carried out between 1 and 15 times. The results in the table below are the mean results from replicate assays for the compound in question, where applicable.

[2] = Kinetic solubility in PBS buffer pH 7.4; assay type: physicochemical; details: aqueous buffer, kinetic from dmso stock; PBS buffer pH 7.4, 90 minutes at room temperature, from 10 mM DMSO stock
Protocol: The kinetic solubility assay investigates a solubility based on the amount of material which remains in solution after a precipitation process. […] Assay is performed using Multiscreen Vacuum Manifold. A buffer of interest (in standard protocol PBS buffer at pH=7.4 is used) is spiked with stock solution and incubated for 90 minutes at room temperature. After that time solution/suspension is filtrated. The concentration of each compound is determined on the base of prepared calibration curve using UV-VIS spectrophotometry method. The assay is made in triplicate.
Buffer of interest: 0.24 g of KH2PO4, 1.44 g of Na2HPO4, 0.2 g of KCl and 8 g NaCl and dissolve in 1 L distilled H2O; adjust pH to appropriate value (pH 7.4). 190 μl of buffer of interest was dispensed into the wells of a 96 well filter plate, followed by 10 μl of compound (10 mM stock solution in DMSO). The plate was shaken gently at room temperature for 90 minutes at 500 rpm using a BioSan, Plate Shaker-Thermostat, PST-60 HL-4. After 90 minutes, the plate was filtered using a vacuum manifold and vacuum pump. 100 μl of each filtrate and 100 μl acetonitrile was transferred to a 96 well UV-visible light transparent plate and the UV-visible absorption spectrum was measured using a Biotek Synergy 2 multiplate reader from 250-500 nm, interval range 10 nm. The amount of test compound was calculated using a calibration curve prepared by serial dilution of compounds in equivalent amounts of DMSO and acetonitrile.

[3] = read-out: GCN2 IC50 (nM) 300 uM ATP, 300 uM ATP
[4] = read-out: GCN2 Ki (nM) 300 uM ATP, 300 uM ATP
[5] = read-out: GCN2 IC50 (nM) 10 uM ATP, 10 uM ATP
[6] = read-out: GCN2 Ki (nM) 10 uM ATP, 10 uM ATP

T1 sequence (Q9P2K8 whole entry): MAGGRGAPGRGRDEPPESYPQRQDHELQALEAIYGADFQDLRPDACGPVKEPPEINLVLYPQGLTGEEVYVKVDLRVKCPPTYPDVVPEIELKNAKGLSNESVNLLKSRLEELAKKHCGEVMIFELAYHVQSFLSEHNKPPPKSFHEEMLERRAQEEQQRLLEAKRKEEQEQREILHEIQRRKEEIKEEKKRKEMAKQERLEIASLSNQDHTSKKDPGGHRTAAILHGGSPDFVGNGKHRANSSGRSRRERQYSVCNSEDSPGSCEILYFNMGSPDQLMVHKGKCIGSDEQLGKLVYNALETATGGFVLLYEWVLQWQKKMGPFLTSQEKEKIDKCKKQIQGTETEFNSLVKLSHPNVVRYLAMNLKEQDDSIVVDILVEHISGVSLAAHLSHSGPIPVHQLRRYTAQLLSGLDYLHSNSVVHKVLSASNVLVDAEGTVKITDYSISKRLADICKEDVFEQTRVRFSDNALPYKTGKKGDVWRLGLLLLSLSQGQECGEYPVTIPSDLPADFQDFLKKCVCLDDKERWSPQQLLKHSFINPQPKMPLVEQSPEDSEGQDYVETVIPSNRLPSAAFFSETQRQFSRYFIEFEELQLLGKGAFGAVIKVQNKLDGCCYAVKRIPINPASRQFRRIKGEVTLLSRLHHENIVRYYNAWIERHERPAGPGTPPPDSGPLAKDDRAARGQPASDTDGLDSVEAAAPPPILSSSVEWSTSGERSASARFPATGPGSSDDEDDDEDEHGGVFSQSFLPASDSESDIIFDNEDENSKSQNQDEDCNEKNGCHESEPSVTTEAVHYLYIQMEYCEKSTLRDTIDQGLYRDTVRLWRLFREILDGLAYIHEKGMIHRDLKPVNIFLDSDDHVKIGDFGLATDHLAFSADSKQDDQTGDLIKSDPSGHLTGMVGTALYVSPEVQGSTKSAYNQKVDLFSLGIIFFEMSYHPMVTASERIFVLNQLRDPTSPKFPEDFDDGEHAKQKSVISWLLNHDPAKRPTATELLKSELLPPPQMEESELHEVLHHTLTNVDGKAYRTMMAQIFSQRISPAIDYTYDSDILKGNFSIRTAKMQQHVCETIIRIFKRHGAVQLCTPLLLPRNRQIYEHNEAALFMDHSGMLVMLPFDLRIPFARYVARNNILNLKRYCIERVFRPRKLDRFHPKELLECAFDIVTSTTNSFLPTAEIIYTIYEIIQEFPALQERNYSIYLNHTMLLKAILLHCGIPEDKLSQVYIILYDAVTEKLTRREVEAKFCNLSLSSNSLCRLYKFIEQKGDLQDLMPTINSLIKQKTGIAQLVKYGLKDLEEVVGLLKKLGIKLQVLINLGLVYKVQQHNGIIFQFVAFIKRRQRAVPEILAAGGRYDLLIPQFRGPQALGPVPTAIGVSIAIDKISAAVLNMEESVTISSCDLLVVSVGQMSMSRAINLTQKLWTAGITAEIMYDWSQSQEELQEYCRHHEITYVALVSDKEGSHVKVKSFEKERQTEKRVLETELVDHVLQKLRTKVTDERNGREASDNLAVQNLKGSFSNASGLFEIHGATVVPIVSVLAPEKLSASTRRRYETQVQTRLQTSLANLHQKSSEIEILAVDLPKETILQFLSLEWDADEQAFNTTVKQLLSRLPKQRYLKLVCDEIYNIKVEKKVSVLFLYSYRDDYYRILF

Row | Compound | IC50 [1, 3] [nM] | Ki [1, 4] [nM] | solubility kinetic at 90 min [2] [µg/mL] | IC50 [1, 5] [nM] | Ki [1, 6] [nM]
1 | COc1ncc(Cl)cc1S(=O)(=O)Nc1nccc(C#Cc2cncc3cnn(C)c23)c1F [Example 24, 5-chloro-N-[3-fluoro-4-(2-{1-methyl-1H-pyrazolo[4,3-c]pyridin-7-yl}ethynyl)pyridin-2-yl]-2-methoxypyridine-3-sulfonamide] | 169 | 2.6 | 80.3 | – | –
2 | Nc1ncc(C#Cc2ccnc(NS(=O)(=O)c3cc(Cl)cc(CO)c3Cl)c2F)cn1 [Example 16, N-{4-[2-(2-aminopyrimidin-5-yl)ethynyl]-3-fluoropyridin-2-yl}-2,5-dichloro-3-(hydroxymethyl)benzene-1-sulfonamide] | 111 | 1.7 | 218 | – | –
3 | COc1ncc(Cl)cc1S(=O)(=O)Nc1nccc(C#Cc2cnc3[nH]nc(OC)c3c2)c1F [Example 37, 5-chloro-N-[3-fluoro-4-(2-{3-methoxy-1H-pyrazolo[3,4-b]pyridin-5-yl}ethynyl)pyridin-2-yl]-2-methoxypyridine-3-sulfonamide] | 20.9 | 0.3 | > 244 | – | –
4 | COc1ncc(Cl)cc1S(=O)(=O)Nc1ncc(F)c(C#Cc2cnc(N)nc2)c1F [Example 10, N-{4-[2-(2-aminopyrimidin-5-yl)ethynyl]-3,5-difluoropyridin-2-yl}-5-chloro-2-methoxypyridine-3-sulfonamide] | – | – | 138 | – | –
5 | COc1ncc(Cl)cc1S(=O)(=O)Nc1nccc(C#Cc2cnc3[nH]nc(C)c3c2)c1F [Example 33, 5-chloro-N-[3-fluoro-4-(2-{3-methyl-1H-pyrazolo[3,4-b]pyridin-5-yl}ethynyl)pyridin-2-yl]-2-methoxypyridine-3-sulfonamide] | 21.7 | 0.3 | 245 | 4.2 | 1.3
6 | O=S(=O)(Nc1nccc(C#Cc2cnc3[nH]ncc3c2)c1F)c1cc(Cl)cc(CO)c1Cl [Example 17, 2,5-dichloro-N-[3-fluoro-4-(2-{1H-pyrazolo[3,4-b]pyridin-5-yl}ethynyl)pyridin-2-yl]-3-(hydroxymethyl)benzene-1-sulfonamide] | 59 | 0.9 | 250 | – | –
7 | COc1ncc(Cl)cc1S(=O)(=O)Nc1nccc(C#Cc2cnc3[nH]ncc3n2)c1F [Example 27, 5-chloro-N-[3-fluoro-4-(2-{1H-pyrazolo[3,4-b]pyrazin-5-yl}ethynyl)pyridin-2-yl]-2-methoxypyridine-3-sulfonamide] | 225 | 3.4 | 225 | – | –
8 | COc1ncc(Cl)cc1S(=O)(=O)Nc1nccc(C#Cc2cnc3[nH]c(=O)[nH]c3n2)c1F [Example 28, 5-chloro-N-[3-fluoro-4-(2-{2-oxo-1H,2H,3H-imidazo[4,5-b]pyrazin-5-yl}ethynyl)pyridin-2-yl]-2-methoxypyridine-3-sulfonamide] | 174 | 2.7 | 231 | – | –
9 | COc1ncc(Cl)cc1S(=O)(=O)Nc1nccc(C#Cc2cnc3c(N)cccn23)c1F [Example 8, N-{4-[2-(8-aminoimidazo[1,2-a]pyridin-3-yl)ethynyl]-3-fluoropyridin-2-yl}-5-chloro-2-methoxypyridine-3-sulfonamide] | 335 | 5.1 | 214 | 9.9 | 3.1
10 | COc1ncc(Cl)cc1S(=O)(=O)Nc1nccc(C#Cc2cnc(N)nc2C)c1F [Example 34, N-{4-[2-(2-amino-4-methylpyrimidin-5-yl)ethynyl]-3-fluoropyridin-2-yl}-5-chloro-2-methoxypyridine-3-sulfonamide] | 658 | 10 | 238 | – | –
11 | COc1ncc(Cl)cc1S(=O)(=O)Nc1nccc(C#Cc2cnn3c(N)ccnc23)c1F [Example 7, N-{4-[2-(7-aminopyrazolo[1,5-a]pyrimidin-3-yl)ethynyl]-3-fluoropyridin-2-yl}-5-chloro-2-methoxypyridine-3-sulfonamide] | 105 | 1.6 | 216 | 7.9 | 2.5
12 | COc1ccc(Cl)cc1S(=O)(=O)Nc1nccc(C#Cc2cnc3[nH]ncc3c2)c1F [Example 12, 5-chloro-N-[3-fluoro-4-(2-{1H-pyrazolo[3,4-b]pyridin-5-yl}ethynyl)pyridin-2-yl]-2-methoxybenzene-1-sulfonamide] | 257 | 3.9 | 161 | – | –
13 | COc1ncc(Cl)cc1S(=O)(=O)Nc1nccc(C#Cc2cnc3[nH]cnc3c2)c1F [Example 29, 5-chloro-N-[3-fluoro-4-(2-{3H-imidazo[4,5-b]pyridin-6-yl}ethynyl)pyridin-2-yl]-2-methoxypyridine-3-sulfonamide] | 654 | 10 | 231 | – | –
14 | COc1ncc(Cl)cc1S(=O)(=O)Nc1nccc(C#Cc2cnc3ccccc3n2)c1F [Example 9, 5-chloro N-{4-[2-(quinoxalin-2-yl)ethynyl]-3-fluoropyridin-2-yl}-2-methoxypyridine-3-sulfonamide] | 112 | 1.7 | 134 | 7.5 | 2.4
15 | COc1ncc(Cl)cc1S(=O)(=O)Nc1nccc(C#Cc2cnc3cnccn23)c1F [Example 26, 5-chloro-N-[3-fluoro-4-(2-{imidazo[1,2-a]pyrazin-3-yl}ethynyl)pyridin-2-yl]-2-methoxypyridine-3-sulfonamide] | 556 | 8.5 | 241 | – | –
16 | COc1ncc(Cl)cc1S(=O)(=O)Nc1nccc(C#Cc2cncc3nn(C)cc23)c1F [Example 22, 5-chloro-N-[3-fluoro-4-(2-{2-methyl-2H-pyrazolo[3,4-c]pyridin-4-yl}ethynyl)pyridin-2-yl]-2-methoxypyridine-3-sulfonamide] | 98.6 | 1.5 | 229 | – | –
17 | COc1ncc(Cl)cc1S(=O)(=O)Nc1nccc(C#Cc2cncc3ncsc23)c1F [Example 19, 5-chloro-N-[3-fluoro-4-(2-{[1,3]thiazolo[4,5-c]pyridin-7-yl}ethynyl)pyridin-2-yl]-2-methoxypyridine-3-sulfonamide] | 384 | 5.9 | 103 | 12 | 3.8
18 | COc1nc(N)ncc1C#Cc1ccnc(NS(=O)(=O)c2cc(Cl)cnc2OC)c1F [Example 35, N-{4-[2-(2-amino-4-methoxypyrimidin-5-yl)ethynyl]-3-fluoropyridin-2-yl}-5-chloro-2-methoxypyridine-3-sulfonamide] | 328 | 5 | – | – | –
